The source of these data is ChEMBL document CHEMBL4400555, “Structure-activity relationships of trichothecenes against COLO201 cells and Cochliobolus miyabeanus: The role of 12-epoxide and macrocyclic moieties” (Bioorg Med Chem Lett, 2019).

pIC50: −log10 of the molar value. The source made the active and inactive calls. The calls are words filed in the database; no cut-off is given here.

Test [1] has as its system COLO 201. Description: Antiproliferative activity against human COLO201 cells after 24 hrs by WST-1 assay. In kind it is functional, cell-based.
The test system of test [2] is Bipolaris oryzae. Description: Antifungal activity against Cochliobolus miyabeanus 131004 assessed as zone of inhibition at 500 ug/disk after 4 days by paper disk method. In kind it is functional. Conditions: Bipolaris oryzae, 131004, 96 h; read-out: IZ.
Test [3] concerns Bipolaris oryzae. Description: Antifungal activity against Cochliobolus miyabeanus 131004 assessed as zone of inhibition at 100 ug/disk after 4 days by paper disk method. It is filed as functional. Conditions: Bipolaris oryzae, 131004, 96 h; read-out: IZ.
The test system of test [4] is Bipolaris oryzae. Description: Antifungal activity against Cochliobolus miyabeanus 131004 assessed as zone of inhibition at 10 ug/disk after 4 days by paper disk method. Conditions: Bipolaris oryzae, 131004, 96 h; read-out: IZ. In kind it is functional.
The subject of test [5] is Bipolaris oryzae. Put plainly: Antifungal activity against Cochliobolus miyabeanus 131004 assessed as zone of inhibition at 50 ug/disk after 4 days by paper disk method. In kind it is functional, organism-based.

With `CC1=C[C@H]2O[C@@H]3C[C@H]4OC(=O)/C=C\C=C\[C@@H]5O[C@@H](O[C@H]5C)[C@H](O)/C(C)=C/C(=O)OC[C@@]2(CC1)[C@]4(C)[C@]31CO1`, the pIC50 in test [1] (colo 201) was 4.38.
In test [1] (Homo sapiens, COLO 201, 24 h), `C=C1[C@H]2C[C@H]3OC(=O)/C=C\C=C\[C@@H]([C@@H](C)O)OCC/C(C)=C/C(=O)OC[C@@]4(CCC(C)=C[C@H]4O2)[C@]13C` had a pIC50 of 4.29. In test [2], the zone of inhibition at 500 µg/disc is 0 mm. Besides, the zone of inhibition at 100 µg/disc in test [3] amounted to 0 mm. The zone of inhibition at 10 µg/disc in test [4] was 0 mm.
Turning to `CC1=C[C@H]2O[C@@H]3[C@H](O)C[C@](C)([C@@]2(CO)[C@H](O)C1=O)[C@]31CO1` [DEOXYNIVALENOL], in test [1] (colo 201), the pIC50 is 4.07.
As for `C=C1[C@H]2CC[C@]1(C)[C@@]1(CO)[C@H](O)C(=O)C(C)=C[C@H]1O2`, in test [1] (Homo sapiens, COLO 201, 24 h), the pIC50 is less than 3.15. Moreover, the zone of inhibition at 10 µg/disc in test [4] amounted to 0 mm. For the same molecule, the “inhibition zone (IZ)” value in test [5] was “inactive”.
As for `CC(=O)O[C@@H]1C[C@H]2O[C@@H]3C=C(C)CC[C@]3(C)[C@]1(C)[C@]21CO1`, the pIC50 in test [1] (colo 201) was 3.91.
On the same count and under the same terms, then `CC1=C[C@H]2O[C@@H]3C[C@H]4OC(=O)/C=C\C=C\[C@@H]5O[C@H](C/C(C)=C/C(=O)OC[C@@]2(C[C@@H]1O)[C@]4(C)[C@]31CO1)O[C@H]5C`, with 4.29.
As to `C=C1[C@H]2C[C@@H](OC(C)=O)[C@]1(C)[C@@]1(C)CCC(C)=C[C@H]1O2`, in test [1] (Homo sapiens, COLO 201, 24 h), the pIC50 was 3.38. In addition, the zone of inhibition at 500 µg/disc in test [2] came out at 0 mm. In test [3], the zone of inhibition at 100 µg/disc is 0 mm. Moreover, the zone of inhibition at 10 µg/disc in test [4] was determined as 0 mm.
In test [1] (colo 201), `CC1=C[C@H]2O[C@@H]3C[C@H]4OC(=O)/C=C\C=C\[C@@H]([C@@H](C)O)OCC/C(C)=C/C(=O)OC[C@@]2(CC1)[C@]4(C)[C@]31CO1` gave a pIC50 of 4.33.
Consider `CC(=O)O[C@H]1C[C@@]23COC(=O)/C=C(\C)C[C@@H]4O[C@@H](C)[C@H](/C=C/C=C\C(=O)O[C@@H]5C[C@@H](O[C@@H]2C=C1C)[C@@]1(CO1)[C@]53C)O4`, for which, in test [1] (colo 201), the pIC50 is 4.34.
For `C=C1[C@H]2C[C@H]3OC(=O)/C=C\C=C\[C@@H]4O[C@@H](O[C@H]4C)[C@H](O)/C(C)=C/C(=O)OC[C@@]4(CCC(C)=C[C@H]4O2)[C@]13C`, in test [1] (Homo sapiens, COLO 201, 24 h), the pIC50 was 4.30. The zone of inhibition at 500 µg/disc in test [2] was 0 mm. Also, the zone of inhibition at 100 µg/disc in test [3] turned out to be 0 mm. For the same molecule, the zone of inhibition at 10 µg/disc in test [4] was 0 mm.
In test [1] (colo 201), `CC1=C[C@H]2O[C@@H]3C[C@H]4OC(=O)/C=C\C=C\[C@@H]5O[C@H](C/C(C)=C/C(=O)OC[C@@]2(CC1)[C@]4(C)[C@]31CO1)O[C@H]5C` had a pIC50 of 4.09.

For orientation: pIC50 means the negative decadic logarithm of the IC50, by convention in mol/L.
